The values that follow come from patent US5473083A, “Reduced and quaternized psoralens as photo-activated therapeutics” (Lehigh University, priority 1994, dated 1995).

Structures can show the parent of a compound that is named as a salt. Bounds are passed on as bounds.

One assay deals with epidermal growth factor receptor (HeLa cells). As to the kind of experiment: Epidermal growth factor binding inhibition assay: 125I-EGF binding to HeLa cells after treatment with phototherapeutic and UVA. It is filed as cell-based, human. The settings on record: cells pulsed with 2.1 J/cm^2 of ultraviolet light (UVA, 320-400 nm) after treatment, 2 nM 125I-EGF, 2 h at 4° C., read-out: IC50, concentration of each compound inhibiting 125I-EGF binding to HeLa cells by 50%. From the text:
The primary in vitro screen for the phototherapeutics described herein is based on our discovery that beneficial phototherapeutics inhibit binding in cells of epithelial origin with epidermal growth factor (EGF). Furthermore, the degree of effective competition in this EGF binding assay relates to the phototherapeutic effect of the test agent. [J. Laskin, E. Lee, D. Laskin, M. Gallo, Proc. Nat. Acad. Sci. (U.S.A.) 83:8211 (1986)].
Inhibition of EGF binding is dependent on dose of the phototherapeutic and on the quanta of light in the 320-400 nm wavelength (ultraviolet light A). It is also structure-dependent, that is, there is a direct correlation between those specific phototherapeutics currently used that are clinically active and their ability to inhibit the binding of epidermal growth factor to its receptor.
The ability of the above compounds in the presence of ultraviolet light, to inhibit epidermal growth factor binding to its cell surface receptor is directly related to its phototherapeutic potential. To assay these compounds for this biological activity, human cells (HeLa) grown in vitro were used. Cells (1.8×10^4 /cm^2) were inoculated into 5 cm culture dishes in growth medium consisting of Dulbecco's modified Eagle's medium supplemented with 10% newborn calf serum. After 4-5 days at 37° C. in a humidified CO2 incubator, the cells were washed three times with 2 ml of phosphate buffered saline and then incubated with the different phototherapeutics in 2 ml of Earle's salt solution supplemented with 5.2 mM D-glucose/25 mM Hepes buffer, pH 7.2. Control cultures were incubated in 2 ml of Earle's salt solution in the absence of the test drugs. After 30 minutes, the cells were then exposed to ultraviolet light (UVA, 320-400 nm) emitted from a bank of four BLB fluorescent light tubes (F40BL/Sylvania) placed approximately 10 cm above the cell culture plates. The incident light delivered onto the culture plates was 3.4 mW per cm^2 as measured with an International Light UV-Radiometer and the cells received 2.1 J/cm^2 of UVA light. After this light exposure, the cells were rinsed with phosphate buffered saline and submitted for assay of epidermal growth factor binding. Phototherapeutic treated cells were then incubated for 2 hours at 4° C. with 2 ml of binding buffer (Dulbecco's modified Eagle's medium/25 mM Hepes buffer, pH 7.2) containing 2 nM labeled epidermal growth factor (^125 I-EGF, specific activity 200 Ci/g).
Nonspecific binding was determined by incubating separate plates of cells with buffer containing the radioligand and excess unlabeled epidermal growth factor (1 microgram/ml). The binding reaction of the radioligand to the cells was terminated by aspirating the binding buffer from the culture dishes and washing the cells four times with ice cold phosphate buffered saline. The cells were then solubilized with 2 ml of 0.2M NaOH and duplicate 0.5 ml aliquots were taken for gamma counting. Specific binding of epidermal growth factor to its receptor was calculated by subtracting nonspecifically bound material from the total. Under the conditions of the assay, specific epidermal growth factor receptor binding represented greater than 80% of the total bound to the cells.
As a specific example of this assay, HeLa cells were treated with 4',5'-dihydropsoralen, followed by ultraviolet light exposure and then by measurement for epidermal growth factor binding. The data can be presented as a curve of epidermal growth factor receptor binding to the cells as a percentage of untreated cells. FIG. 1 is an example of 125-I EGF binding inhibition of 4',5'-dihydropsoralen and UVA. The concentration inhibiting epidermal growth factor binding to the cells by 50% (the IC50 value) is determined from the curve.
*IC50, concentration of each compound inhibiting 125I-EGF binding to
**Following treatment of the cells with the phototherapeutic they were
***Highest concentration tested
As for `O=c1ccc2ccccc2o1` [coumarin, reference compound], the IC50 was over 100 µM.

As to `Cc1cc(=O)oc2c(C)c3c(cc12)CC(C)O3` (stereo not drawn) [4,5',8-trimethyl-4',5'-dihydropsoralen], the IC50 worked out at 7 µM.

In the case of `Cc1oc2c(C)c3oc(=O)cc(C)c3cc2c1C[N+](C)(C)C` [4'-[(N,N,N,-trimethylannonium)methyl]-4,5',8-trimethylpsoralen iodide salt], the IC50 is 5 µM.

Still in this assay, the particulars now being: read-out: IC50, concentration of each compound inhibiting 125I-EGF binding to HeLa cells by 50%, cells pulsed with 2.1 J/cm^2 of ultraviolet light (UVA, 320-400 nm) after treatment, 2 nM 125I-EGF, 2 h at 4° C.
Take `Cc1cc(=O)oc2c(C)c3oc(CBr)c(Br)c3cc12` [4'-Bromo-5'-bromomethyl-4,8-dimethylpsoralen]: the IC50 came to 3.6 µM.

In the case of `O=c1ccc2cc3c(cc2o1)OCC3` [4',5'-dihydropsoralen], the IC50 turned out to be 11 µM.

Regarding `Cc1cc(=O)oc2c(C)c3oc(CBr)cc3cc12` [5'-bromomethyl-4,8-dinethylpsoralen, 5'-Bromomethyl-4,8-dimethylpsoralen], the IC50 was determined as 1.5 µM.

Regarding `COc1c2c(cc3oc(=O)ccc13)OCC2` [5-methoxy-4',5'-dihydropsoralen], the IC50 was found to be 2.8 µM.

Take `Cc1c([N+](=O)[O-])c(=O)oc2c(C)c3c(cc12)CC(C)O3` (stereo not drawn) [3-nitro-4,5',8-trimethyl-4',5'-dihydropsoralen]: the IC50 came out at 24 µM.

For the molecule `COc1c2ccoc2cc2oc(=O)ccc12` [5-methoxypsoralen (5-MOP), 5-methoxypsoralen, reference compound], the IC50 stood at 1.6 µM.

On to `Cc1cc(=O)oc2c(C)c3oc(C[n+]4ccccc4)cc3cc12` [5'-[(N-Pyridinium)methyl]-4,8-dimethylpsoralen Bromide Salt], for which the IC50 stood at 0.74 µM.

Take `CCOC(=O)c1cc2cc3c(cc2oc1=O)OCC3` [3-carboethoxy-4',5'-dihydropsoralen]: the IC50 was 4.9 µM.

`Cc1cc2cc3c(C)cc(=O)oc3c(C)c2o1` [4,5',8-trimethylpsoralen, reference compound]: the IC50 came out at 6.6 µM.
